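All cell lines were grown in 96-well plates and treated with compound for 48 hours. The concentration for 50% growth inhibition is given as GI50.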 Calls of active or inactive are those of the source. Cut-off read from the data, not from the text of the source: active = GI50 up to about 1.1 µM and inactive = higher.
How the values were obtained:
Experiment in all cases: growth of human tumour cells (NCI), 48 h
A498 = tested on: A498
A549 = tested on: A549
CCRF-CEM = tested on: CCRF-CEM
COLO 205 = tested on: COLO 205
HCC 2998 = tested on: HCC 2998
HCT-15 = tested on: HCT-15
HT-29 = tested on: HT-29
LOX IMVI = tested on: LOX IMVI
M14 = tested on: M14
MDA-MB-231 = tested on: MDA-MB-231
NCI-H226 = tested on: NCI-H226
NCI-H522 = tested on: NCI-H522
OVCAR-4 = tested on: OVCAR-4
RXF 393 = tested on: RXF 393
SF-295 = tested on: SF-295
SK-MEL-2 = tested on: SK-MEL-2
SN12C = tested on: SN12C
U-251 = tested on: U-251
UACC-62 = tested on: UACC-62
SR = tested on: SR

SMILES	GI50 (A498)	GI50 (A549)	GI50 (CCRF-CEM)	GI50 (COLO 205)	GI50 (HCC 2998)	GI50 (HCT-15)	GI50 (HT-29)	GI50 (LOX IMVI)	GI50 (M14)	GI50 (MDA-MB-231)	GI50 (NCI-H226)	GI50 (NCI-H522)	GI50 (OVCAR-4)	GI50 (RXF 393)	GI50 (SF-295)	GI50 (SK-MEL-2)	GI50 (SN12C)	GI50 (U-251)	GI50 (UACC-62)	GI50 (SR)
COc1ccc2[nH]c(C(=O)N3CC(CCl)c4ccc(N)cc43)cc2c1 (stereo unspecified)	0.0789 µM (active)	0.0964 µM (active)	0.17 µM (active)	0.2 µM (active)	0.14 µM (active)	0.287 µM	0.151 µM (active)	0.177 µM (active)	0.146 µM (active)	0.202 µM (active)	0.32 µM (active)	0.0161 µM (active)	0.163 µM (active)	0.09 µM (active)	0.201 µM (active)	0.199 µM (active)	0.347 µM (active)	0.313 µM (active)	0.141 µM (active)	
Cc1ccc(S(=O)(=O)N/N=C/c2c(O)ccc3ccccc23)cc1	16.7 µM (inactive)	34 µM (inactive)	36.7 µM (inactive)	19.5 µM (inactive)	21.4 µM (inactive)	24.5 µM	32.9 µM (inactive)	32.1 µM (inactive)	22.1 µM (inactive)	21.9 µM (inactive)		17 µM (inactive)	28.8 µM (inactive)	19.4 µM (inactive)	16.2 µM (inactive)	20.8 µM (inactive)	31.1 µM (inactive)	27.6 µM (inactive)	18.2 µM (inactive)	
COc1nc2ncc([C@@H](OC(C)=O)[C@@H](COC(C)=O)OC(C)=O)nc2c(=O)[nH]1	> 100 µM (inactive)	> 100 µM (inactive)	> 100 µM (inactive)	> 100 µM (inactive)		> 100 µM	> 100 µM (inactive)	> 100 µM (inactive)	> 100 µM (inactive)	> 100 µM (inactive)	51.5 µM (inactive)		> 100 µM (inactive)	> 100 µM (inactive)	> 100 µM (inactive)	> 100 µM (inactive)	> 100 µM (inactive)	> 100 µM (inactive)	> 100 µM (inactive)	
Cc1nn(-c2ccccc2)c(C)c1/C=N/N=C1\SCC(=O)N1c1ccccc1	23.6 µM (inactive)	28.6 µM (inactive)	25 µM (inactive)	14.9 µM (inactive)	20.3 µM (inactive)	17.9 µM	20.5 µM (inactive)	22.6 µM (inactive)	28.6 µM (inactive)	35 µM (inactive)	23.6 µM (inactive)		10.6 µM (inactive)	16.5 µM (inactive)	21.5 µM (inactive)	25.7 µM (inactive)	44.7 µM (inactive)	25.8 µM (inactive)	21.4 µM (inactive)	25.1 µM (inactive)
O=C1CSC(c2cccc(Cl)c2)N1c1ccc(-c2ccc(-n3c(-c4ccccc4)nc4ccccc4c3=O)cc2)cc1 (stereo unspecified)	> 100 µM (inactive)	54.2 µM (inactive)	29.9 µM (inactive)	34.6 µM (inactive)	15.1 µM (inactive)	33.5 µM	38.9 µM (inactive)	35.1 µM (inactive)	53.6 µM (inactive)	50.6 µM (inactive)	67 µM (inactive)	41.6 µM (inactive)	35.1 µM (inactive)		51.8 µM (inactive)	25.2 µM (inactive)	62.4 µM (inactive)	52.1 µM (inactive)	31.4 µM (inactive)	18.9 µM (inactive)
COC(=O)c1c(OC(C)=O)ccc2c1c1c(n2Cc2ccccc2)C(=O)c2ccccc2C1=O	19.4 µM (inactive)	26.4 µM (inactive)	36.3 µM (inactive)	16.9 µM (inactive)	16.2 µM (inactive)	19.7 µM	16.9 µM (inactive)		22 µM (inactive)	17.1 µM (inactive)	23 µM (inactive)	19.5 µM (inactive)	21.8 µM (inactive)	18.8 µM (inactive)	17.5 µM (inactive)	18.7 µM (inactive)	19.1 µM (inactive)	19.4 µM (inactive)	22.5 µM (inactive)	24.9 µM (inactive)
COc1ccc(-n2cnn3c(=O)c4cn[nH]c4nc23)cc1		> 10 µM (inactive)	> 10 µM (inactive)		> 10 µM (inactive)		> 10 µM (inactive)	> 10 µM (inactive)	> 10 µM (inactive)	0.00724 µM (active)	> 10 µM (inactive)	> 10 µM (inactive)	> 10 µM (inactive)		> 10 µM (inactive)		> 10 µM (inactive)	> 10 µM (inactive)		> 10 µM (inactive)
COC(=O)C1=C(C(=O)OC)C(N(C)C)C(C(=O)OC)=C(C(=O)OC)S1	> 100 µM (inactive)	> 100 µM (inactive)		> 100 µM (inactive)	> 100 µM (inactive)	> 100 µM		> 100 µM (inactive)	> 100 µM (inactive)	> 100 µM (inactive)	> 100 µM (inactive)		> 100 µM (inactive)	> 100 µM (inactive)	> 100 µM (inactive)	> 100 µM (inactive)	> 100 µM (inactive)	> 100 µM (inactive)	> 100 µM (inactive)	> 100 µM (inactive)
CCCCc1ccc(N2C(=O)c3cc(C)cnc3S2(=O)=O)cc1		> 100 µM (inactive)		> 100 µM (inactive)	> 100 µM (inactive)	> 100 µM	> 100 µM (inactive)	> 100 µM (inactive)	> 100 µM (inactive)	> 100 µM (inactive)	> 100 µM (inactive)	> 100 µM (inactive)	> 100 µM (inactive)	49.2 µM (inactive)	91.8 µM (inactive)	> 100 µM (inactive)	> 100 µM (inactive)	> 100 µM (inactive)		> 100 µM (inactive)
Cc1c(O)nc(-n2[nH]c3c(c2=O)CCCC3)[nH]c1=O	> 100 µM (inactive)		> 100 µM (inactive)	> 100 µM (inactive)		> 100 µM	> 100 µM (inactive)		> 100 µM (inactive)	> 100 µM (inactive)	> 100 µM (inactive)	> 100 µM (inactive)	> 100 µM (inactive)	> 100 µM (inactive)	> 100 µM (inactive)	> 100 µM (inactive)	> 100 µM (inactive)	> 100 µM (inactive)	> 100 µM (inactive)	> 100 µM (inactive)
Cc1csc2nc(-c3ccc([N+](=O)[O-])cc3)c(/C=N/N=C(N)N)n12	1.82 µM (inactive)	1.84 µM (inactive)	1.91 µM (inactive)	1.53 µM (inactive)	< 0.01 µM (active)	0.791 µM	1.76 µM (inactive)	1.9 µM (inactive)	1.85 µM (inactive)	1.76 µM (inactive)	1.73 µM (inactive)	1.63 µM (inactive)	1.53 µM (inactive)	1.79 µM (inactive)	1.74 µM (inactive)	1.43 µM (inactive)	1.71 µM (inactive)	1.8 µM (inactive)	1.71 µM (inactive)	
CC(CN1NC12CCCC2)N1NC12CCCC2 (stereo unspecified)	> 100 µM (inactive)	> 100 µM (inactive)	> 100 µM (inactive)	> 100 µM (inactive)	> 100 µM (inactive)	> 100 µM	> 100 µM (inactive)	> 100 µM (inactive)	> 100 µM (inactive)	> 100 µM (inactive)	> 100 µM (inactive)	> 100 µM (inactive)	> 100 µM (inactive)	> 100 µM (inactive)	> 100 µM (inactive)	> 100 µM (inactive)	> 100 µM (inactive)	> 100 µM (inactive)	> 100 µM (inactive)	
N#Cc1c(O)c(/N=N/c2ccccc2F)c(=O)n2c1[nH]c1ccccc12	60.5 µM (inactive)	42.5 µM (inactive)	36.8 µM (inactive)	55.1 µM (inactive)	53.6 µM (inactive)	37.2 µM	23.3 µM (inactive)	61.9 µM (inactive)	22.4 µM (inactive)	22.2 µM (inactive)	33.7 µM (inactive)	27.9 µM (inactive)	39.3 µM (inactive)	37.8 µM (inactive)	33 µM (inactive)	20.9 µM (inactive)	31.6 µM (inactive)	32.7 µM (inactive)	20.6 µM (inactive)	
CCN(CC)c1ccc(/C=C/C=C2C(=O)NC(=S)NC2=O)cc1	> 100 µM (inactive)	> 100 µM (inactive)	2.81 µM (inactive)	> 100 µM (inactive)	27.2 µM (inactive)	> 38.7 µM	> 100 µM (inactive)	13.5 µM (inactive)	35.4 µM (inactive)	22.9 µM (inactive)	28.6 µM (inactive)		> 100 µM (inactive)	8.07 µM (inactive)	> 83.6 µM (inactive)	> 68.9 µM (inactive)	29.9 µM (inactive)	21 µM (inactive)	15.1 µM (inactive)	2.53 µM (inactive)
CCCCN1/C(=N/Nc2n[nH]c(=O)c3ccccc23)SCC1c1ccc(Cl)cc1 (stereo unspecified)	3.47 µM (inactive)	5.26 µM (inactive)		11.8 µM (inactive)		6.52 µM	24.2 µM (inactive)		5.55 µM (inactive)	20.6 µM (inactive)	10.4 µM (inactive)	11.8 µM (inactive)	53.3 µM (inactive)	20.1 µM (inactive)	6.53 µM (inactive)	20.9 µM (inactive)	24.6 µM (inactive)	4.92 µM (inactive)	7.31 µM (inactive)	4.73 µM (inactive)
COc1ccc2[nH]c3ccc4cc[n+](CCN5CCC(C6CCN(CC[n+]7ccc8ccc9[nH]c%10ccc(OC)cc%10c9c8c7)CC6)CC5)cc4c3c2c1	> 16.2 µM (inactive)	0.409 µM (active)	0.274 µM (active)			2.24 µM	0.333 µM (active)		> 50 µM (inactive)	8.04 µM (inactive)	29.4 µM (inactive)	0.875 µM (active)	7.29 µM (inactive)	0.569 µM (active)	1.64 µM (inactive)	> 52.7 µM (inactive)	0.661 µM (active)	4.67 µM (inactive)	0.938 µM (active)	0.117 µM (active)

Reference: ChEMBL document CHEMBL1201862, “PubChem BioAssay data set” (2004)
